The record followed here is publication PMC3876893 (Journal of the American Chemical Society, 2013).

Structures are written as SMILES.

The test concerns the target CalE8 (Micromonospora echinospora, UniProt Q8KNG1). Kind of test: in vitro reconstitution, HPLC/LCMS of base-released polyketides. Format: biochemical. As to conditions: NADPH co-substrate (0.5 mM each), pH 7.0, 24 °C, no CalE7 thioesterase.

CalE8, sequence (Q8KNG1 1-1919): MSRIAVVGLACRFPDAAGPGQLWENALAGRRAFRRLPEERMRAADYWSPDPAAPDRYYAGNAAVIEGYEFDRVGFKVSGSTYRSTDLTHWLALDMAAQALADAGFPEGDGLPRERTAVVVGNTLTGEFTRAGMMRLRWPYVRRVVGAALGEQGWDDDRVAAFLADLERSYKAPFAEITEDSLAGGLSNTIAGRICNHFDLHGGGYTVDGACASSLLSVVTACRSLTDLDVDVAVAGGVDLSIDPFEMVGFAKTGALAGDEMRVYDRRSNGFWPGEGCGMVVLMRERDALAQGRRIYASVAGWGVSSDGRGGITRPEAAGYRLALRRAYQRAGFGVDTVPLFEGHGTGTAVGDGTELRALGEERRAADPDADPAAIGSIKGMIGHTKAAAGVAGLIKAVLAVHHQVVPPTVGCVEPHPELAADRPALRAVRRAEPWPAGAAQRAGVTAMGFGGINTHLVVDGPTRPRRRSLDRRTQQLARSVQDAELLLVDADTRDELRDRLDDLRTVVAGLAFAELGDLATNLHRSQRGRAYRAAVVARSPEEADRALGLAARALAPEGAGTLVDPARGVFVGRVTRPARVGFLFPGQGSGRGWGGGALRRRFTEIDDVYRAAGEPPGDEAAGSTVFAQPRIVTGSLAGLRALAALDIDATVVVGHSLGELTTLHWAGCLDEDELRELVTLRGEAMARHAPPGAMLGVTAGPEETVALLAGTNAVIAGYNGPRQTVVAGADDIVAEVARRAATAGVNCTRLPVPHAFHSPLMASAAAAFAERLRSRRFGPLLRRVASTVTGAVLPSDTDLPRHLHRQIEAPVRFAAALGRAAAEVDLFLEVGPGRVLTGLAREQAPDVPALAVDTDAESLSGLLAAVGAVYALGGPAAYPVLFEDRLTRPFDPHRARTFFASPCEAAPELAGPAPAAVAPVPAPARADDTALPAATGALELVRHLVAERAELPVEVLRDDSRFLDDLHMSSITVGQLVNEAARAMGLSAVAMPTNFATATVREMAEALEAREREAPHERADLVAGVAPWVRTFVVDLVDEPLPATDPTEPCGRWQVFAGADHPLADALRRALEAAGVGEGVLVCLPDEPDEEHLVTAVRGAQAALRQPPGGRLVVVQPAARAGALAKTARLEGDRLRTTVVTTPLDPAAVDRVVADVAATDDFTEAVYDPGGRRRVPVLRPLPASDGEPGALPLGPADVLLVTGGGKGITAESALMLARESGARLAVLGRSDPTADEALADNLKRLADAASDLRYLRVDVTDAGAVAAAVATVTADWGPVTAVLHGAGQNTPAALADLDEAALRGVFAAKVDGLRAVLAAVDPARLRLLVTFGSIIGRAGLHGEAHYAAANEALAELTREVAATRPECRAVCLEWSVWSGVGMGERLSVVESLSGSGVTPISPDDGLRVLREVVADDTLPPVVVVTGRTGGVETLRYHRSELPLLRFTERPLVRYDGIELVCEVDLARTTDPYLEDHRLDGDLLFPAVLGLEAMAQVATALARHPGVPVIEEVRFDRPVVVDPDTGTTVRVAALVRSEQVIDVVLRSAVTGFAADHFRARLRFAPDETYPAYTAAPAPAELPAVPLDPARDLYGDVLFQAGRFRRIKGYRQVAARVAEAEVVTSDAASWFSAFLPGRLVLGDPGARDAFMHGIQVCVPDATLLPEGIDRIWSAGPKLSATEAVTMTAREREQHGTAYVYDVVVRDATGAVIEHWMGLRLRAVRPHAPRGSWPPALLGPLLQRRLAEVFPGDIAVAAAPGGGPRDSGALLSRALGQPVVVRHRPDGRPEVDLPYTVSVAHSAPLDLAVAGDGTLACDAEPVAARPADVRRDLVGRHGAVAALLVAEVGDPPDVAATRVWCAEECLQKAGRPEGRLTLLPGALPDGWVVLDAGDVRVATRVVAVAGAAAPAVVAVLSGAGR

Turning to `CC(=O)NCCSC(=O)CC(=O)O` [malonyl-SNAc], the “in vitro reconstitution, HPLC/LCMS of base-released polyketides” value is given as “polyketide profiles of CalE8 are consistent when MalCoA is replaced by malonyl-SNAc (MalSNAc)”.
